Patent US20250326744A1, “PIPERAZINE DERIVATIVE OR SALT THEREOF, AND PHARMACEUTICAL COMPOSITION” (priority 2022, published 2025)
Structures can show the parent of a compound that is named as a salt.

What was measured:
mexB (PA) strain = assay: Combinational effect with antibacterial agent against Pseudomonas aeruginosa (Test Examples 2 and 4): mexB (PA) strain with LVFX, TC or AZT at 1/4 MIC, EC99; type: cell-based; conditions: for EC99, mexB (PA), AZT / EC99, mexB (PA), LVFX / EC99, mexB (PA), TC: Table 52, Test Example 2, 16 to 20 hours culture, OD595; for EC99, mexB (PA), AZT / EC99, combinational effect with AZT, mexB (PA): combined with AZT at 1/4 MIC; for EC99, mexB (PA), LVFX / EC99, combinational effect with LVFX, mexB (PA): combined with LVFX at 1/4 MIC; for EC99, mexB (PA), TC / EC99, combinational effect with TC, mexB (PA): combined with TC at 1/4 MIC; for EC99, combinational effect with AZT, mexB (PA) / EC99, combinational effect with LVFX, mexB (PA) / EC99, combinational effect with TC, mexB (PA): mexB (PA) strain, Test Example 4
Summary of the method: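 EC99 denotes the minimum test-compound concentration (range 0–800 μM) that suppresses ≥99% of growth, measured by OD595, when combined with ¼ MIC levofloxacin (LVFX), tetracycline or aztreonam. The efflux-pump mutant mexB (PA), expressing mainly MexAB-OprM, was inoculated at 10^4–5 CFU/well in CAMHB for 16–20 h.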

S-3769 strain = assay: Combinational effect with antibacterial agent against Pseudomonas aeruginosa (Test Examples 2 and 4): S-3769 strain with AMK or GM at 1/4 MIC, EC99; type: cell-based; conditions: for EC99, S-3769 strain, AMK / EC99, S-3769 strain, GM: Table 52, Test Example 2, 16 to 20 hours culture, OD595; for EC99, S-3769 strain, AMK / EC99, combinational effect with AMK, S-3769 strain: combined with AMK at 1/4 MIC; for EC99, S-3769 strain, GM / EC99, combinational effect with GM, S-3769 strain: combined with GM at 1/4 MIC; for EC99, combinational effect with AMK, S-3769 strain / EC99, combinational effect with GM, S-3769 strain: Test Example 4
Summary of the method: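 EC99, the lowest test-compound concentration inhibiting growth by ≥99% (OD595), was measured with aminoglycoside AMK or GM held at ¼ MIC. Strain S-3769, a MexY-overexpressing clinical isolate, was cultured in CAMHB at 10^4 to 5 CFU/well for 16–20 h; compound range 0–800 μM.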

Compound | EC99, mexB (PA), AZT (mexB (PA) strain) | EC99, mexB (PA), LVFX (mexB (PA) strain) | EC99, mexB (PA), TC (mexB (PA) strain) | EC99, S-3769 strain, AMK (S-3769 strain) | EC99, S-3769 strain, GM (S-3769 strain) | EC99, combinational effect with AZT, mexB (PA) (mexB (PA) strain) | EC99, combinational effect with LVFX, mexB (PA) (mexB (PA) strain) | EC99, combinational effect with TC, mexB (PA) (mexB (PA) strain) | EC99, combinational effect with AMK, S-3769 strain (S-3769 strain) | EC99, combinational effect with GM, S-3769 strain (S-3769 strain)
CCOc1cccc(F)c1CN1CCN(C(=O)[C@H](N)C2CCN(CCc3cc(OC(F)(F)F)ccc3-c3ccccc3Cl)CC2)CC1 [Example 86, Hydrobromide of (R)-2-amino-2-(1-(2-(2′-chloro-4-(trifluoromethoxy)-[1,1′-biphenyl]-2-yl)ethyl)piperidin-4-yl)-1-(4-(2-ethoxy-6-fluorobenzyl)piperazin-1-yl)ethan-1-one] | B (25 μM<EC99≤100 μM) | B (25 μM<EC99≤100 μM) | B (25 μM<EC99≤100 μM) | B (25 μM<EC99≤100 μM) | B (25 μM<EC99≤100 μM) | – | – | – | – | –
CCOc1cccc(F)c1CN1CCN(C(=O)[C@H](N)C2CCN(CCc3cc(Cl)ccc3-c3ccccc3N)CC2)CC1 [Example 97, (R)-2-amino-2-(1-(2-(2′-amino-4-chloro-[1,1′-biphenyl]-2-yl)ethyl)piperidin-4-yl)-1-(4-(2-ethoxy-6-fluorobenzyl)piperazin-1-yl)ethan-1-one] | S (EC99≤12.5 μM) | S (EC99≤12.5 μM) | A (12.5 μM<EC99≤25 μM) | A (12.5 μM<EC99≤25 μM) | S (EC99≤12.5 μM) | – | – | – | – | –
N[C@@H](C(=O)N1CCN(Cc2cccc3c2CCN3)CC1)C1CCN(CCc2cc(Cl)ccc2-c2ccccc2)CC1 [Example 513, Hydrobromide of (R)-2-amino-2-(1-(2-(4-chloro-[1,1-biphenyl]-2-yl)ethyl)piperidin-4-yl)-1-(4-(indolin-4-ylmethyl)piperazin-1-yl)ethan-1-one] | – | – | – | – | – | B (25 μM<EC99≤100 μM) | B (25 μM<EC99≤100 μM) | B (25 μM<EC99≤100 μM) | B (25 μM<EC99≤100 μM) | B (25 μM<EC99≤100 μM)
CCOc1cccc(F)c1CN1CCN(C(=O)[C@H](N)C2CCN(CCc3cc(Cl)ccc3C3=CCNCC3)CC2)CC1 [Example 71, (R)-2-amino-2-(1-(5-chloro-2-(1,2,3,6-tetrahydropyridin-4-yl)phenethyl)piperidin-4-yl)-1-(4-(2-ethoxy-6-fluorobenzyl)piperazin-1-yl)ethan-1-one] | C (100 μM<EC99) | B (25 μM<EC99≤100 μM) | S (EC99≤12.5 μM) | S (EC99≤12.5 μM) | S (EC99≤12.5 μM) | – | – | – | – | –
CCSc1cccc(F)c1CN1CCN(C(=O)[C@H](N)C2CCN(CCc3cc(Cl)ccc3-c3ccccc3)CC2)CC1 [Example 27, (R)-2-amino-2-(1-(2-(4-chloro-[1,1′-biphenyl]-2-yl)ethyl)piperidin-4-yl)-1-(4-(2-(ethylthio)-6-fluorobenzyl)piperazin-1-yl)ethan-1-one] | A (12.5 μM<EC99≤25 μM) | A (12.5 μM<EC99≤25 μM) | S (EC99≤12.5 μM) | S (EC99≤12.5 μM) | S (EC99≤12.5 μM) | – | – | – | – | –
CCOc1cccc(F)c1CN1CCN(C(=O)CN2CCC(CCc3ccccc3)(CNCCN)CC2)CC1 [Example 426, hydrochloride of 2-(4-(((2-aminoethyl)amino)methyl)-4-phenethylpiperidin-1-yl)-1-(4-(2-ethoxy-6-fluorobenzyl)piperazin-1-yl)ethan-1-one] | B (25 μM<EC99≤100 μM) | – | B (25 μM<EC99≤100 μM) | B (25 μM<EC99≤100 μM) | B (25 μM<EC99≤100 μM) | – | – | – | – | –
CSc1sccc1CN1CCN(C(=O)[C@H](N)C2CCN(CCc3cc(Cl)ccc3-c3ccccc3)CC2)CC1 [Example 531, Hydrobromide of (R)-2-amino-2-(1-(2-(4-chloro-[1,1-biphenyl]-2-yl)ethyl)piperidin-4-yl)-1-(4-((2-(methylthio)thiophen-2-yl)methyl)piperazin-1-yl)ethan-1-one] | – | – | – | – | – | B (25 μM<EC99≤100 μM) | S (EC99≤12.5 μM) | A (12.5 μM<EC99≤25 μM) | A (12.5 μM<EC99≤25 μM) | A (12.5 μM<EC99≤25 μM)
CCOc1cccc(F)c1CN1CCN(C(=O)CN2CCC(O)(CCc3ccccc3)CC2)CC1 [Example 422, hydrochloride of 1-(4-(2-ethoxy-6-fluorobenzyl)piperazin-1-yl)-2-(4-hydroxy-4-phenethylpiperidin-1-yl)ethan-1-one] | A (12.5 μM<EC99≤25 μM) | B (25 μM<EC99≤100 μM) | A (12.5 μM<EC99≤25 μM) | C (100 μM<EC99) | C (100 μM<EC99) | – | – | – | – | –
CCOc1cccc(F)c1CN1CCN(C(=O)[C@H](N)C2CCN(CCc3cc(Cl)ccc3-c3cccc(F)c3O)CC2)CC1 [Example 581, Hydrochloride of (R)-2-amino-2-(1-(2-(4-chloro-3′-fluoro-2′-hydroxy-[1,1-biphenyl]-2-yl)ethyl)piperidin-4-yl)-1-(4-(2-ethoxy-6-fluorobenzyl)piperazin-1-yl)ethan-1-one] | – | – | – | – | – | B (25 μM<EC99≤100 μM) | A (12.5 μM<EC99≤25 μM) | B (25 μM<EC99≤100 μM) | A (12.5 μM<EC99≤25 μM) | A (12.5 μM<EC99≤25 μM)
CCSc1cccc(O)c1CN1CCN(C(=O)[C@H](N)C2CCN(CCc3cc(Cl)ccc3-c3ccccc3)CC2)CC1 [Example 591, Hydrochloride of (R)-2-amino-2-(1-(2-(4-chloro-[1,1-biphenyl]-2-yl)ethyl)piperidin-4-yl)-1-(4-(2-(ethylthio)-6-hydroxybenzyl)piperazin-1-yl)ethan-1-one] | – | – | – | – | – | S (EC99≤12.5 μM) | S (EC99≤12.5 μM) | S (EC99≤12.5 μM) | B (25 μM<EC99≤100 μM) | B (25 μM<EC99≤100 μM)
CCOc1cccc(F)c1CN1CCN(C(=O)[C@H](N)C2CCN(CCc3cc(OC)ccc3-c3ccccc3)CC2)CC1 [Example 51, Hydrobromide of (R)-2-amino-1-(4-(2-ethoxy-6-fluorobenzyl)piperazin-1-yl)-2-(1-(2-(4-methoxy-[1,1′-biphenyl]-2-yl)ethyl)piperidin-4-yl)ethan-1-one] | B (25 μM<EC99≤100 μM) | B (25 μM<EC99≤100 μM) | B (25 μM<EC99≤100 μM) | A (12.5 μM<EC99≤25 μM) | S (EC99≤12.5 μM) | – | – | – | – | –
N[C@@H](C(=O)N1CCN(Cc2cccc3c2OC(F)(F)O3)CC1)C1CCN(CCc2cc(Cl)ccc2-c2ccccc2)CC1 [Example 24, Hydrobromide of (R)-2-amino-2-(1-(2-(4-chloro-[1,1′-biphenyl]-2-yl)ethyl)piperidin-4-yl)-1-(4-((2,2-difluorobenzo[d][1,3]dioxol-4-yl)methyl)piperazin-1-yl)ethan-1-one] | B (25 μM<EC99≤100 μM) | B (25 μM<EC99≤100 μM) | A (12.5 μM<EC99≤25 μM) | B (25 μM<EC99≤100 μM) | B (25 μM<EC99≤100 μM) | – | – | – | – | –
CCOc1cccc(F)c1CN1CCN(C(=O)[C@H](N)C2CCN(CCc3cc(Cl)ccc3-c3cc(O)ccc3F)CC2)CC1 [Example 585, (R)-2-amino-2-(1-(2-(4-chloro-2′-fluoro-5′-hydroxy-[1,1′-biphenyl]-2-yl)ethyl)piperidin-4-yl)-1-(4-(2-ethoxy-6-fluorobenzyl)piperazin-1-yl)ethan-1-one] | – | – | – | – | – | S (EC99≤12.5 μM) | S (EC99≤12.5 μM) | S (EC99≤12.5 μM) | S (EC99≤12.5 μM) | S (EC99≤12.5 μM)
